Results as given in patent publication US11306094B2, “Stable formulations of 5,10-methylene-(6R)-tetrahydrofolic acid” (MERCK & CIE, priority 2016, dated 2022).
Counter-ions that a name gives are not always drawn.

Columns and labels:
[1] = Suspension equilibration stability; assay type: physicochemical
From the text: (a) Suspension equilibration of (6R)-5,10-CH2-THF hemisulfate salt as starting material at temperatures other than room temperature in a variety of solvents and mixture are summarized in Table 10: […]

Clinical safety = assay type: in vivo; details: patients, doses of up to 200 mg/m^2
[2] = Phase I/II study ISO-CC-002, pharmacokinetics/pharmacodynamics versus Levoleucovorin; assay type: in vivo; details: compared to Levoleucovorin, 32 colon cancer patients
Protocol: (b) In a single-blinded, randomized phase I/II study (ISO-CC-002) performed on 32 patients diagnosed with colon cancer the pharmacokinetic and pharmacodynamic properties of (6R)-5,10-CH2-THF hemisulfate compared to Levoleucovorin in tumor tissue, adjacent mucosa and blood plasma were investigated. The study was performed at the Sahlgrenska University Hospital in Goteborg, Sweden. […] The concentrations of methylenetetrahydrofolate and tetrahydrofolate in both tumor and adjacent mucosa were also much higher after administration of (6R)-5,10-CH2-THF hemisulfate than those obtained after administration of Levoleucovorin.

[3] = Crystal form stability by XRPD (85% ethanol; high temperature/low pressure); assay type: physicochemical
Protocol: (§1) (b) Stability in 85% Ethanol at Room Temperature (6R)-5,10-CH2-THF hemisulfate salt (3.01 g) was dispersed in 100 ml 85% EtOH at room temperature and stirred for 5 h, then filtered and dried at 30° C. and 8 mbar for 12 hours (over night). […] (c) Stability at High Temperature/Low Pressure (6R)-5,10-CH2-THF hemisulfate salt (2.17 g) was placed in a drying chamber at 65° C. and 8 mbar for 21 h. […] (d) Long-Term Stability of (6R)-5,10-CH2-THF Hemisulfate Salt and Pharmaceutical Composition Thereof In order to determine the long-term stabilities of (6R)-5,10-CH2-THF hemisulfate salt, the salts were stored in air at 25° C. and at 60% relative humidity. The content of (6R)-5,10-CH2-THF hemisulfate salt remaining was measured by HPLC at periodic intervals and is given by comparison with the initial value (% rel.).

[4] = Long-term stability of hemisulfate salt, HPLC content; assay type: physicochemical; details: salt stored in air, 25° C./60% rh
Protocol: as §1

[5] = Comparative stability hemisulfate versus sulfate salt (Example 4-1); assay type: physicochemical
Protocol: Stability studies were performed as in the examples above. The conditions for the studies are provided with each data set provided. Some of the data in this example is from previous examples herein, but are reproduced here to provide some kind of a side-by-side nature of the presentation of the results.

Nc1nc2c(c(=O)[nH]1)N1CN(c3ccc(C(=O)N[C@@H](CCC(=O)O)C(=O)O)cc3)C[C@H]1CN2 [(6R)-5,10-CH2-THF hemisulfate salt, N-[4-[(6aR)-3-amino-1,2,5,6,6a,7-hexahydro-1-oxoimidazo[1,5-f]pteridin-8(9H)-yl]benzoyl]-L-glutamic acid]
Observation (suspension equilibration stability) ([1]; 2-PrOH with ~2 mM L-ascorbic acid, 40° C., 3 d): No change | Observation (suspension equilibration stability) ([1]; AcOH saturated with L-ascorbic acid, 50° C., 1 d): No change | Observation (suspension equilibration stability) ([1]; AcOH saturated with L-ascorbic acid, 50° C., 5 d): No change | Observation (suspension equilibration stability) ([1]; H2O, 5° C., 6 d): No change | Observation (suspension equilibration stability) ([1]; MeCN saturated with L-ascorbic acid, 50° C., 5 d): No change | Observation (suspension equilibration stability) ([1]; MeOH/formic acid 1:1, 50° C., 2 h): No change | Observation (suspension equilibration stability) ([1]; PEG4500/EtOH 1:9 saturated with L-ascorbic acid, 50° C., 7 d): No change | Observation (suspension equilibration stability) ([1]; THF with ~2 mM L-ascorbic acid, 40° C., 3 d): No change | Observation (suspension equilibration stability) ([1]; formic acid/THF 1:3, 10-20° C., 6 d): No change | safety (Clinical safety): safe | concentrations of methylenetetrahydrofolate and tetrahydrofolate in tumor and adjacent mucosa [2]: much higher | exposure and peak plasma concentrations of methylenetetrahydrofolate [2]: substantially greater | X-ray pattern of crystal form Type 1 (XRPD) ([3]; drying chamber 65° C. and 8 mbar for 21 h): remained unchanged | X-ray pattern of crystal form Type 1 (XRPD) ([3]; stirred in 85% EtOH at room temperature for 5 h): remained unchanged | (6R)-5,10-CH2—THF hemisulfate (% rel) ([4]; 0 months): 100.0 % rel | (6R)-5,10-CH2—THF hemisulfate (% rel) ([4]; 3 months, listed as (6R)-5,10-CH2—THF hemisulfate (batch 1)): 99.7 % rel | (6R)-5,10-CH2—THF hemisulfate (% rel) ([4]; 3 months, listed as (6R)-5,10-CH2—THF hemisulfate (batch 2)): 99.9 % rel | (6R)-5,10-CH2—THF hemisulfate (% rel) ([4]; 3 months, listed as (6R)-5,10-CH2—THF hemisulfate (batch 3)): 99.5 % rel | (6R)-5,10-CH2—THF hemisulfate (% rel) ([4]; 6 months): 99.5 % rel | (6R)-5,10-CH2—THF hemisulfate (% rel) ([4]; 6 months, listed as (6R)-5,10-CH2—THF hemisulfate (batch 2)): 99.9 % rel | (6R)-5,10-CH2—THF hemisulfate (% rel) ([4]; 9 months, listed as (6R)-5,10-CH2—THF hemisulfate (batch 1)): 99.6 % rel | (6R)-5,10-CH2—THF hemisulfate (% rel) ([4]; 9 months, listed as (6R)-5,10-CH2—THF hemisulfate (batch 2)): 100.0 % rel | (6R)-5,10-CH2—THF hemisulfate (% rel) ([4]; 9 months, listed as (6R)-5,10-CH2—THF hemisulfate (batch 3)): 99.4 % rel | (6R)-5,10-CH2—THF hemisulfate (% rel) ([4]; 12 months, listed as (6R)-5,10-CH2—THF hemisulfate (batch 1)): 99.2 % rel | (6R)-5,10-CH2—THF hemisulfate (% rel) ([4]; 12 months, listed as (6R)-5,10-CH2—THF hemisulfate (batch 2)): 99.7 % rel | (6R)-5,10-CH2—THF hemisulfate (% rel) ([4]; 12 months, listed as (6R)-5,10-CH2—THF hemisulfate (batch 3)): 99.1 % rel | (6R)-5,10-CH2—THF hemisulfate (% rel) ([4]; 18 months, listed as (6R)-5,10-CH2—THF hemisulfate (batch 1)): 99.2 % rel | (6R)-5,10-CH2—THF hemisulfate (% rel) ([4]; 18 months, listed as (6R)-5,10-CH2—THF hemisulfate (batch 2)): 99.4 % rel | (6R)-5,10-CH2—THF hemisulfate (% rel) ([4]; 18 months, listed as (6R)-5,10-CH2—THF hemisulfate (batch 3)): 99.0 % rel | (6R)-5,10-CH2—THF hemisulfate (% rel) ([4]; 24 months, listed as (6R)-5,10-CH2—THF hemisulfate (batch 1)): 99.4 % rel | (6R)-5,10-CH2—THF hemisulfate (% rel) ([4]; 24 months, listed as (6R)-5,10-CH2—THF hemisulfate (batch 2)): 99.4 % rel | (6R)-5,10-CH2—THF hemisulfate (% rel) ([4]; 24 months, listed as (6R)-5,10-CH2—THF hemisulfate (batch 3)): 99.0 % rel | (6R)-5,10-CH2—THF hemisulfate (% rel) ([4]; 36 months, listed as (6R)-5,10-CH2—THF hemisulfate (batch 1)): 98.5 % rel | (6R)-5,10-CH2—THF hemisulfate (% rel) ([4]; 36 months, listed as (6R)-5,10-CH2—THF hemisulfate (batch 2)): 99.0 % rel | stability compared with the sulfate salt ([5]; 3 batches, various temperatures): remarkably more stable | stability at elevated temperature ([5]; +40° C. and relative humidity of 75%): excellent stability
